Ki and ID50 data for eight compounds are collected here from ChEMBL document CHEMBL1148493, “A combination of docking/dynamics simulations and pharmacophoric modeling to discover new dual c-Src/Abl kinase inhibitors” (J Med Chem, 2006).

A value given as a limit tells only on which side of the number the result lay.

Experiment [1] deals with Proto-oncogene tyrosine-protein kinase Src (Homo sapiens, UniProt P12931). Put plainly: Binding affinity to human recombinant Src.
The target of experiment [2] is Tyrosine-protein kinase ABL1 (Homo sapiens) (UniProt P00519).
Chain of Tyrosine-protein kinase ABL1 (Homo sapiens) (P00519 whole entry): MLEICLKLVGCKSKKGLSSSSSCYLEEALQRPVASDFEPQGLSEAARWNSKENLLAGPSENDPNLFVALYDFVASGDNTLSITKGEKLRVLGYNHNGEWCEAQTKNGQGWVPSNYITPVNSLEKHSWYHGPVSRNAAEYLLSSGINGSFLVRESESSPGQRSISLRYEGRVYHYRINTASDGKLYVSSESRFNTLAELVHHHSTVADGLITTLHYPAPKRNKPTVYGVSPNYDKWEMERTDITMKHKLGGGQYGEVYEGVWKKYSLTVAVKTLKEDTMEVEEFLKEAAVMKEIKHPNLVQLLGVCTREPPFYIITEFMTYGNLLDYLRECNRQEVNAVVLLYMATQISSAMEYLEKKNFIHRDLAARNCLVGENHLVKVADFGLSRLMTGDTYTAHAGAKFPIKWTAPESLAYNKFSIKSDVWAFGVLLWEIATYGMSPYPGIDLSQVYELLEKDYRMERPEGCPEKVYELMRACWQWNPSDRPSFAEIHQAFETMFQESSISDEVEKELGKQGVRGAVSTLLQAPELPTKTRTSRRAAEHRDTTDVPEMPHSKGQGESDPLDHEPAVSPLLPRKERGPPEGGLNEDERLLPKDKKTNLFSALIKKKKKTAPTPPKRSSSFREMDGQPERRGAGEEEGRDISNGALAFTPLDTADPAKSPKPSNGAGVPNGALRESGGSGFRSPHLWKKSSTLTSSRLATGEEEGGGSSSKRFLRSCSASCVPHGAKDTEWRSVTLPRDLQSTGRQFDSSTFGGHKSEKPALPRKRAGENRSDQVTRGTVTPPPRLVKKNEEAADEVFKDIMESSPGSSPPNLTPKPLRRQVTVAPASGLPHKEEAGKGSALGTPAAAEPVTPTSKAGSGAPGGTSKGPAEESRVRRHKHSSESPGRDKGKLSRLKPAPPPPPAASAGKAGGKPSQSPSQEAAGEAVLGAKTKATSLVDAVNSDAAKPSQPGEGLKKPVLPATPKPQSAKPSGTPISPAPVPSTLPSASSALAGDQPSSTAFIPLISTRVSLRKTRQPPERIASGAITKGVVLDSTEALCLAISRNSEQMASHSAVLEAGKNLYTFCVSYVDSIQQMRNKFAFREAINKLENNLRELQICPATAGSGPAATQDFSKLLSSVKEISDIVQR
Description: Binding affinity to human recombinant Abl

Chain of Proto-oncogene tyrosine-protein kinase Src (P12931 2-536 limits assumed): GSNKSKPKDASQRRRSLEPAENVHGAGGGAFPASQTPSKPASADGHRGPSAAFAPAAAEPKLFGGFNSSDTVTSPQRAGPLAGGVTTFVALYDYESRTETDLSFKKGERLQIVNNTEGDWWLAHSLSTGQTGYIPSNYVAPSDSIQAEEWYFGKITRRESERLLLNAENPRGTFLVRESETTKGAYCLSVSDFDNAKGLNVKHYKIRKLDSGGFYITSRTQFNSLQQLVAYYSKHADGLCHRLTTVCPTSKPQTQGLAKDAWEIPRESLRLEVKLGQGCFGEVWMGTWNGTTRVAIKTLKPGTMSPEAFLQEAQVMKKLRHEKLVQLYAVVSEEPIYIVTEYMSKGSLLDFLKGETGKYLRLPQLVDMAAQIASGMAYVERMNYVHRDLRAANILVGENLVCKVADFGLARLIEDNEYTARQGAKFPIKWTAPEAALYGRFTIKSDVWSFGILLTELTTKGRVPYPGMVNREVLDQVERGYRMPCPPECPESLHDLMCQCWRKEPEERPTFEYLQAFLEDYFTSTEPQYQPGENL

In general, Ki refers to the equilibrium dissociation constant of an inhibitor or competing ligand from its target. `O=C(Nc1nnc(CCc2ccccc2)s1)c1ccccc1`: the Ki in experiment [1] came to 2.9 µM. The ID50 in experiment [2] was > 2000 µM.
For the compound `Cc1ccc(-c2cnc(NC(=O)c3ccc(Br)cc3)s2)cc1`, the ID50 in experiment [1] and in experiment [2] was > 2000 µM in each case.
`O=C(Nc1ccccc1)Nc1nnc(Cc2ccccc2)s1`: the ID50 in experiment [1] is > 2000 µM.
Turning to `O=C(Nc1nnc(CCc2ccccc2)s1)c1ccc(Cl)cc1Cl`, the ID50 in experiment [2] was > 2000 µM.
Turning to `O=C1NN(c2ccc(I)cc2)C(=O)/C1=C\c1ccc(N2CCOCC2)cc1`, the ID50 in experiment [1] was > 2000 µM.
As for `COc1ccc(C(=O)Nc2nnc(Cc3c[nH]c4ccccc34)s2)cc1`, the ID50 in experiment [2] was > 2000 µM.
Turning to `O=C1NN(c2ccccc2)C(=O)/C1=C\c1ccccc1OCc1ccccc1`, the ID50 in experiment [2] was > 2000 µM.
With `CCN(CC)c1ccc(/C=C2/C(=O)NN(c3ccc(I)cc3)C2=O)c(O)c1`, the ID50 in experiment [2] is > 2000 µM.
